Assay results taken from patent US20220143179A1, “DRUG DELIVERY FOR COMBINATION OF EPIGENETIC MODULATION AND IMMUNE CHECKPOINT BLOCKADE” (NORTH CAROLINA STATE UNIVERSITY, priority 2019, published 2022).
Like-named read-outs stand apart in the source and are kept apart here.

Test system: B16F10 melanoma cells
Test: MTT assay, cytotoxicity of hypomethylating agents
Format: cell-based
Settings: Mus musculus, read-out: IC50 against B16F10 melanoma cells
Procedure: First, MTT assays were conducted to compare the cytotoxicity among these agents and determine the appropriate concentration to induce the expression of TAAs.
B16F10 cells were cultured into 96-well plates at a density of 5×10^3 cells per well overnight. […] Finally, the rate of cell viability was calculated according to the absorbance at 560 nm by a plate reader (Power Wave XS, Bio-TEK, USA).

SMILES	IC50 (B16-F10, MTT, 72 h incubation)	IC50 (B16-F10, 72 h)
Nc1nc(=O)n([C@H]2C[C@H](O)[C@@H](CO)O2)cc1F [5-F, 5-Fluoro-2′-deoxycytidine]	1.05 µM	
Nc1ncn([C@@H]2O[C@H](CO)[C@@H](O)[C@H]2O)c(=O)n1 [AC, 5-Azacytidine]	49 µM	
Nc1ncn([C@H]2C[C@H](O)[C@@H](CO)O2)c(=O)n1 [DAC, 5-Aza-2′-deoxycytidine]		2.55 µM
O=c1ncccn1[C@@H]1O[C@H](CO)[C@@H](O)[C@H]1O [Zeb, Zebularine]	69.2 µM	
